Data as given in ChEMBL document CHEMBL4825753 (J Med Chem, 2021).

What was measured:
[1] = biological target: T1, Receptor-type tyrosine-protein kinase FLT3 (Homo sapiens, UniProt P36888); experiment: Inhibition of FLAG-tagged FLT3 (unknown origin) transfected in Cos-7 cells assessed as phosphorylation level incubated for 1 hr by ELISA; format: cell-based
T1 sequence (P36888 whole entry): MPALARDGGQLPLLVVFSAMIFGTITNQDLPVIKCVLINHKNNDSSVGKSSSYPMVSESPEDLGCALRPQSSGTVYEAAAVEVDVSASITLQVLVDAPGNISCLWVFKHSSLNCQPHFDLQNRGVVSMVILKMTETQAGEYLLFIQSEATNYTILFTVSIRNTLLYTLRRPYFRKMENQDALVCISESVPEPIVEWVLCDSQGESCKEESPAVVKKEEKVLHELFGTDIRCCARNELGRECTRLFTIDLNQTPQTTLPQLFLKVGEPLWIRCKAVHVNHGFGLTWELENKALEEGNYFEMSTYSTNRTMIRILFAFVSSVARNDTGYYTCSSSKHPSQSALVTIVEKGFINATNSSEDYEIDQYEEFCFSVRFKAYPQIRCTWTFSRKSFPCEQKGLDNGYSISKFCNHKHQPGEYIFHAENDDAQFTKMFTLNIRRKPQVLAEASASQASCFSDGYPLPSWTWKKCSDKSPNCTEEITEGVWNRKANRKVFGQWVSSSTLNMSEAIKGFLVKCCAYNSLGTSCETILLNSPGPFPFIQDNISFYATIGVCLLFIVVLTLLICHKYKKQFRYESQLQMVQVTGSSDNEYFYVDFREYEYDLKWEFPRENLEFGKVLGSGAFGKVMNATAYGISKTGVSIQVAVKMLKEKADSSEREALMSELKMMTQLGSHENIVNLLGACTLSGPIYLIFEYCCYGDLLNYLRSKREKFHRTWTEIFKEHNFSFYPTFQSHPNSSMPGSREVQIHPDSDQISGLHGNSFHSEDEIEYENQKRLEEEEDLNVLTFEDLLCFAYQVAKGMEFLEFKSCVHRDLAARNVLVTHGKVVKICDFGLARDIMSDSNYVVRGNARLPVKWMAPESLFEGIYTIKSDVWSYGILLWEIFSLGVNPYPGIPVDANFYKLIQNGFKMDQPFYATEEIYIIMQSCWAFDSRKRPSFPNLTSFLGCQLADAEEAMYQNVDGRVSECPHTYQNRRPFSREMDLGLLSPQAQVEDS

[2] = biological target: T2, Tyrosine-protein kinase receptor UFO (Homo sapiens, UniProt P30530); experiment: Inhibition of FLAG-tagged AXL (unknown origin) transfected in Cos-7 cells assessed as phosphorylation level incubated for 1 hr by ELISA; format: cell-based
T2 sequence (P30530 whole entry): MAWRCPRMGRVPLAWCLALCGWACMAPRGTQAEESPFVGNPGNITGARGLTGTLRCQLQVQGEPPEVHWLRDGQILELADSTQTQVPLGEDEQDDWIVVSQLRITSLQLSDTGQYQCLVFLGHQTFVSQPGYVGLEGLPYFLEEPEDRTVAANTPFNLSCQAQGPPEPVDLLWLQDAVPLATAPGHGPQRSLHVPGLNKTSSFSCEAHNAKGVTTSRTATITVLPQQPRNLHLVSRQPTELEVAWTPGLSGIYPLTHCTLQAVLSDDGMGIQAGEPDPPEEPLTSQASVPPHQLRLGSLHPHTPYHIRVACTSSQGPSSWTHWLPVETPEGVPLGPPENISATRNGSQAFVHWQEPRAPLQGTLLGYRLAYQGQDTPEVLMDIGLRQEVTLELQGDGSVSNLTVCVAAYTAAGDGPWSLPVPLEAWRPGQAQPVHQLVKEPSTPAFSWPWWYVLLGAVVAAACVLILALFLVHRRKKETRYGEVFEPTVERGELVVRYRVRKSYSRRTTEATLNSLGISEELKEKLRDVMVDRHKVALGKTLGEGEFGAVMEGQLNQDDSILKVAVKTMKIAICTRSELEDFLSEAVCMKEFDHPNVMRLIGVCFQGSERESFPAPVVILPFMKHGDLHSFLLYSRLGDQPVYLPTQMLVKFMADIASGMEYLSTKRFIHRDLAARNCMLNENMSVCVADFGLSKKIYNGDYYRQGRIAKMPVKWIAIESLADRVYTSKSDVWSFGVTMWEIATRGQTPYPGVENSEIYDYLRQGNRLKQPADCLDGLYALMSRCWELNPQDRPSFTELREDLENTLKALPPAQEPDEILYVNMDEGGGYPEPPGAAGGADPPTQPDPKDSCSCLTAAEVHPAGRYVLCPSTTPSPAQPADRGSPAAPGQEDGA

[3] = biological target: T3, Tyrosine-protein kinase Mer (Homo sapiens, UniProt Q12866); experiment: Inhibition of MER (unknown origin) by LC-MS analysis
T3 sequence (Q12866 whole entry): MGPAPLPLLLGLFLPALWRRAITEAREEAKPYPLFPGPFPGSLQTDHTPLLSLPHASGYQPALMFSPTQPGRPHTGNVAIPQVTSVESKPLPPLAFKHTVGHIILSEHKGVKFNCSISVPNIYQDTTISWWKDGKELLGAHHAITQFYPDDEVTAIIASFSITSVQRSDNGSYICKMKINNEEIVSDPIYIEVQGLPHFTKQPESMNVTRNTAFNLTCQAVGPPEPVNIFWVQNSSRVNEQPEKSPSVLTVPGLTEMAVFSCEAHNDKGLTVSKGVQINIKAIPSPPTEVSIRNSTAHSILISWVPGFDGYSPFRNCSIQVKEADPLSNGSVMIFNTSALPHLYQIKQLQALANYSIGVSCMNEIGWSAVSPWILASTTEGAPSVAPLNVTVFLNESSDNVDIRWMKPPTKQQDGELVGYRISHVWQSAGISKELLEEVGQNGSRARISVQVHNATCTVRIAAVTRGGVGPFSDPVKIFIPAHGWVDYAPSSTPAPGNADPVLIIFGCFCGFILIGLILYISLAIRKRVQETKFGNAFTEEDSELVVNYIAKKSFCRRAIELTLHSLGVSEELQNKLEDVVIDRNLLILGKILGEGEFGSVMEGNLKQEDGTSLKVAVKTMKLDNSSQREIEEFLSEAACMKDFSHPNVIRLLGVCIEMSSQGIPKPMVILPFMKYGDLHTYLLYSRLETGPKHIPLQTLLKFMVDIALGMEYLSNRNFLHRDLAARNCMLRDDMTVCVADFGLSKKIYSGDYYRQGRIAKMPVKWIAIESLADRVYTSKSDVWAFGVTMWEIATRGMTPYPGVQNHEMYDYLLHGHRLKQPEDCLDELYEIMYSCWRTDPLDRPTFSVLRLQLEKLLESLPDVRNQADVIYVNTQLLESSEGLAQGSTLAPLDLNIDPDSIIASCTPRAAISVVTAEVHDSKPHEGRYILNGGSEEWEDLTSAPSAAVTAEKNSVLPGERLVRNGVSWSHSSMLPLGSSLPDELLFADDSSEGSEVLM

[4] = biological target: T2, Tyrosine-protein kinase receptor UFO; experiment: Inhibition of AXL (unknown origin) by LC-MS analysis
[5] = Lipophilicity, log D of the compound at pH 7.4; format: physicochemical; conditions: buffer
[6] = biological target: T1, Receptor-type tyrosine-protein kinase FLT3; experiment: Inhibition of FLT3 (unknown origin) by LC-MS analysis

| Compound | IC50 [1] [µM] | IC50 [2] [µM] | IC50 [3] [µM] | IC50 [4] [µM] | logD [5] | IC50 [6] [µM] |
| --- | --- | --- | --- | --- | --- | --- |
| Cc1cc(-c2c(C)n[nH]c2C)ccc1-c1nnc(N(C)Cc2ccc3nccn3c2)o1 | 7.94 | 15.8 | 0.0398 | 5.01 | 3.8 | 39.8 |
| Cc1cc(-c2c(C)nc(C)n2C)ccc1-c1nnc(N(C)Cc2ccc3nccn3c2)o1 | > 50.1 | 5.01 | 0.0398 | 3.98 | 2.6 | 39.8 |
| CN(Cc1ccc2nccn2c1)c1nnc(-c2ccc(-c3ccccc3F)cc2)o1 | – | – | 0.0158 | 1.58 | 4.4 | 50.1 |
| CN(Cc1ccc2nccn2c1)c1nnc(-c2ccc(C3CC3)cc2)o1 | – | – | 0.794 | 20 | 3.5 | 25.1 |
| COc1ccccc1-c1ccc(-c2nnc(N(C)Cc3ccc4nccn4c3)o2)cc1 | – | – | 0.0316 | 1.58 | 4.1 | 50.1 |
| Cc1nc(-c2c(C)nn(C)c2C)ccc1-c1nnc(N(C)Cc2ccc3nccn3c2)o1 | > 31.6 | 10 | 0.0631 | 3.16 | 2.5 | > 100 |
| Cc1nn(C)c(C)c1-c1ccc(-c2nnc(N(C)Cc3ccc4nccn4c3)o2)c(F)c1 | > 31.6 | 3.16 | 0.0126 | 1.26 | 3.2 | > 100 |
| CN(Cc1ccc2nccn2c1)c1nnc(-c2ccccc2)o1 | – | – | 15.8 | > 100 | 2.4 | > 100 |
| Cc1ccccc1-c1ccc(-c2nnc(N(C)Cc3ccc4nccn4c3)o2)cc1 | – | – | 0.0126 | 0.631 | 4.7 | 1 |
| Cc1nn(C)c(C)c1-c1ccc(-c2nnc(N(C)Cc3ccc4nccn4c3)o2)cc1 | – | 3.16 | 0.0316 | 1.26 | 3.1 | > 63.1 |
| Cc1nn(C)c(C)c1-c1ccc(-c2nnc(N(C)Cc3ccc4nccn4c3)o2)c(Cl)c1 | > 31.6 | 0.794 | 0.00251 | 0.0794 | 3.3 | 20 |
| Cc1cc(-c2c(C)nn(C)c2C#N)ccc1-c1nnc(N(C)Cc2ccc3nccn3c2)o1 | > 31.6 | 0.398 | 0.00158 | 0.0398 | 3.8 | 15.8 |
| Cc1noc(C)c1-c1ccc(-c2nnc(N(C)Cc3ccc4nccn4c3)o2)cc1 | – | – | 0.2 | 31.6 | 3.1 | 39.8 |
| Cc1cc(-c2cnn(C)c2C)ccc1-c1nnc(N(C)Cc2ccc3nccn3c2)o1 | > 31.6 | 0.794 | 0.002 | 0.1 | 3.4 | 63.1 |
| Cc1ncccc1-c1ccc(-c2nnc(N(C)Cc3ccc4nccn4c3)o2)cc1 | – | – | 0.0501 | 6.31 | 3.1 | 20 |
| CN(Cc1ccc2nccn2c1)c1nnc(-c2ccc(-c3ccccc3C#N)cc2)o1 | – | – | 0.0251 | 3.98 | 3.6 | 10 |
| Cc1cc(-c2c(C#N)nn(C)c2C)ccc1-c1nnc(N(C)Cc2ccc3nccn3c2)o1 | – | 6.31 | 0.0316 | 6.31 | 3.4 | 25.1 |
| CN(Cc1ccc2nccn2c1)c1nnc(-c2ccc(-c3ccccc3)cc2)o1 | – | – | 0.0398 | 3.16 | 3.9 | 25.1 |
| Cc1nn(C)c(C)c1-c1ccc(-c2nnc(N(C)Cc3ccc4nccn4c3)o2)c(C#N)c1 | > 31.6 | > 31.6 | 100 | > 100 | 2.9 | 79.4 |
| Cc1cc(-c2c(C)nn(C(F)F)c2C)ccc1-c1nnc(N(C)Cc2ccc3nccn3c2)o1 | > 31.6 | > 10 | 0.501 | 63.1 | 4.1 | 100 |
| CN(Cc1ccc2nccn2c1)c1nnc(-c2ccc(-c3ccccc3Cl)cc2)o1 | – | – | – | – | 4.7 | – |
| COc1cc(-c2c(C)nn(C)c2C)ccc1-c1nnc(N(C)Cc2ccc3nccn3c2)o1 | > 31.6 | 2 | 0.0158 | 0.794 | 2.9 | 39.8 |
